Our source for the melting point values is a melting point compilation (Tetko et al.).

Usually melting point stands for the temperature of the solid-liquid transition. For the compound `CC(C)(C)OC(=O)NC(Cc1cccnc1)C(=O)O` (configuration not stated), the melting point is 137 °C. The compound `CC(C)(C)OC(=O)N[C@H]1CCCNC1` came in with a melting point of 125 °C. Take `NC1=NCC(c2ccccc2)O1` (configuration not stated): the melting point is 136 °C. Next, `O=[N+]([O-])c1ccc(Br)cc1C(F)(F)F`: 34 °C; `CC(C)COC(=O)c1ccccc1C(=O)OCC(C)C`: -64 °C; `CC(CC1CC(=O)c2c3c(c4ccccc4c2O1)O[C@@H]1CC(=O)O[C@H]31)O[Si](C)(C)C(C)(C)C` (some centres not stated): 131 to 133 °C. Next, `COc1cc(N=C=S)cc(OC)c1`: 50.5 °C; `NC(=O)CCCNC(=C1C=C(F)C=CC1=O)c1ccc(Cl)cc1`: 134 °C. In turn, `Cc1ccc(C)c(C(=O)N(NC(=O)c2ccccc2)C(C)(C)C)c1` showed a melting point of 198 °C.

`CC(=O)CC(c1ccc(Cl)cc1)c1c(O)c2ccccc2oc1=O` (configuration not stated) yielded a melting point of 170 °C. Next, `O=C(O)C=Cc1cccnc1`: 233 to 237 °C; `Nc1cc2ccccc2cc1N`: 199 °C; `CCN1C(=O)CC(=O)N(CC)C1=S`: 106 to 109 °C. Next, `N#CCC(=O)c1ccc(N)cc1`: 159 °C. With `Cc1ccc2ncccc2c1`, the melting point was -22 °C.

Take `O=C(O)c1cc2sccc2[nH]1`: the melting point was 180 °C.

Compound `CCOC(=O)C(CCc1ccccc1)NC(C)C(=O)N1CCCC1C(=O)O` (configuration not stated) displayed a melting point of 144 °C.

`C(=C/c1ccco1)/c1ccc2cc3ccc(/C=C/c4ccco4)nc3cc2n1` gave a melting point of 272 °C. Next, `NC1CC1`: -10 °C; `CC12CCC(=O)CC1CCC1C2CCC2(C)C(O)(C(=O)CO)CCC12O` (configuration not stated): 218 °C. Take `CCOC(=O)C=C(C)N`: the melting point lay within 33 to 35 °C. Next, `O=CC(F)(F)C(F)(F)C(F)(F)C(F)(F)C(F)(F)C(F)(F)C(F)(F)C(F)(F)C(F)(F)C(F)(F)F`: 70 to 72 °C; `COC(=O)CS(C)(=O)=O`: 62 to 63 °C.

Consider `CCCCCC=CC(=O)O`, for which the melting point lay in the range of 5 to 6 °C. Next, `FC(F)(F)C(F)(Cl)C(Cl)(Cl)C(F)(F)F` (configuration not stated): 4 °C; `FC(F)(F)c1ccc2[nH]ccc2c1`: 69 °C; `Nc1ccc(O)c2c1C(=O)c1c(O)ccc(N)c1C2=O`: 300 °C. Next, `FC(F)(F)c1nc(C(F)(F)F)nc(C(F)(F)F)n1`: -24.8 °C.

Consider `O=C(CS)Nc1ccc2ccccc2c1`, for which the melting point is 112 °C. Next, `COc1ccc(C(=O)O)cc1I`: 240 °C.

Take `COc1ccc(C=C2C(=O)NN=C2c2c(O)c3ccccc3n(C)c2=O)cc1`: the melting point turned out to be 250 °C. Next, `CCOc1ccc2c(C)cc(=O)oc2c1`: 115 °C. Next, `NC(=S)c1cccc2c1OCCO2`: 106 to 109 °C. For `O=[N+]([O-])c1ccc(F)c2nonc12`, the melting point stood at 52 °C. `CC(=O)Nc1ccc(C#N)c(C)c1` came in with a melting point of 163 °C.

On to `O=c1cc(-c2ccc(O)c(O)c2)oc2ccccc12`, for which the melting point came out at 250 °C. Next, `O=C=N[Si](N=C=O)(N=C=O)N=C=O`: 26 °C. Consider `COC1C(C2COC3(CCCCC3)O2)OC2OC3(CCCCC3)OC21` (configuration not stated), for which the melting point was in the range of 35 to 38 °C. Compound `Ic1ccc(Cn2cccn2)cc1` yielded a melting point of 80 to 81 °C. Next, `Brc1ccc(-c2ccccn2)s1`: 87 to 89 °C; `CC(=O)C(C)O` (configuration not stated): 15 °C; `O=C(/C(=N/Nc1ccc(Br)cc1)S(=O)(=O)c1ccccc1)c1cccs1`: 158 °C. Compound `O=C1C=CCN1[C@@H](CO)c1ccccc1` gave a melting point of 103 °C. Next, `CN(C)c1ccc(CNC(=O)c2cc([N+](=O)[O-])cc([N+](=O)[O-])c2)cc1`: 145 °C; `N#Cc1c(NC(=O)c2ccccc2Cl)sc2c1CCCC2`: 161 to 162 °C; `COc1cccc(C=C2C(=O)NN=C2c2c(O)c3ccccc3n(C)c2=O)c1`: 254 °C. The compound `CCOC(=O)Oc1c(-c2ccccc2)n(C(C)=O)c2cc([N+](=O)[O-])ccc12` gave a melting point of 133 °C. In turn, `OC12CC=CCC1(O)CC=CC2` (configuration not stated) displayed a melting point of 83 °C. Next, `COc1cc(O)c(C=O)c(OC)c1`: 70 °C; `CCCCC(=O)OC(=O)CCCC`: -56.1 °C; `OCC#CC#CCO`: 112 °C.

The compound `NC(=O)c1ccccc1CO` had a melting point of 150 °C.

For `CC1C2Cc3ccc(O)cc3C1(C)CCN2CCc1ccccc1` (configuration not stated), the melting point turned out to be 181 °C.

With `CC(=O)N(C(C)=O)c1cc(C=CC(=O)O)ccc1C=CC(=O)O`, the melting point was 310 to 315 °C.

`NC(=O)c1cc(F)ccc1F` yielded a melting point of 114 to 116 °C. As to `O=C(COc1ccc(Cl)cc1)Nc1nc2ccccc2s1`, the melting point turned out to be 139 °C. The compound `CC(=O)c1[nH]c(C)cc1C` registered a melting point of 118 to 121 °C. `Clc1ncnc2c1cnn2-c1ccccc1`: the melting point lay in the range of 126 to 128 °C. As for `CCCCCCCOC(=O)c1ccc(O)cc1`, the melting point came out at 48 °C. Next, `CC(=O)OCCBr`: -13.8 °C. Next, `CC(C)C(=O)OCCCc1ccccc1`: -60 °C; `Cc1sc(-c2ccccn2)nc1-c1ccccc1`: 86 °C. For `COc1ccc(C(=O)O)cc1OC1CCCC1`, the melting point is 164 to 166 °C. Next, `Fc1cc(F)c(F)c(-c2c(F)c(F)cc(F)c2F)c1F`: 85 °C; `Oc1c(F)cccc1Cl`: 63 °C; `COc1cc(C(=O)Cc2ccccc2)c([N+](=O)[O-])cc1OC`: 152 °C. Compound `O=C1CNCCN1` displayed a melting point of 132 °C. Next, `S=c1ssc(S)c1-c1ccccc1`: 153 to 155 °C. Compound `C/C=C/C(=O)N1C(=O)OC[C@@H]1C(C)C` had a melting point of 56 °C. Next, `CCc1cccc(CC)c1NC(=O)CN(CC(=O)O)CC(=O)O`: 187 to 190 °C; `COC1C(O)C(C)OC(OC2CCC3(C=O)C(CCC4C3CCC3(C)C(C5=CC(=O)OC5)CCC43O)C2)C1O` (configuration not stated): 162 °C; `O=Cc1c[nH]nc1-c1ccccc1`: 146 to 148 °C. `Cc1nc(C=O)cs1` returned a melting point of 56 to 58 °C. Next, `Cc1cc(C(=O)Cl)nn1C`: 73 to 74 °C; `O=C(O)c1cc(S(=O)(=O)F)c2ccccc2c1O`: 300 °C.

Compound `Cc1n[nH]c(C)c1Oc1ccc(Cl)cc1` had a melting point of 139 to 141 °C.

On to `O=C(Cl)OCc1ccc([N+](=O)[O-])cc1`, for which the melting point is 33 °C. Next, `CC(O)C(c1ccccc1)c1ccccc1` (configuration not stated): 59 to 63 °C. Next, `NC(=O)c1cc(C(=O)CN(Cc2ccccc2)Cc2ccccc2)ccc1O`: 168 °C; `COc1ccc(-c2nnc3n2NC(c2ccccc2O)S3)cc1` (configuration not stated): 220 °C; `Cn1c(=O)n(-c2ccccc2)c(=O)c2c3c(sc21)CCCC3`: 249 to 251 °C. Consider `FC1(F)C(F)(F)C(F)(F)C2(F)C(F)(F)C(F)(F)C(F)(F)C(F)(F)C2(F)C1(F)F` (configuration not stated), for which the melting point is -10 °C.

Compound `COc1ccc(C=Nc2n[nH]c(N=Cc3ccc(OC)c(OC)c3)c2Cc2ccc(Cl)cc2)cc1OC` registered a melting point of 170 to 172 °C. Next, `O=C(O)c1cccc(N2CCOCC2)c1`: 161 to 163 °C. Next, `COC(=O)c1sc(SC)c(S(=O)(=O)C(C)C)c1I`: 193 to 195 °C; `O=Cc1cn(Cc2ccccc2)c2ccccc12`: 108 to 110 °C.

`Nc1ccc(Cl)nc1` registered a melting point of 83 °C. Next, `Clc1noc2ccccc12`: 31 °C; `COc1ccc2c3c1OC1C(O)CC=C4C(C2)N(C)CCC431` (configuration not stated): 128 °C; `N#CC1(c2ccc(F)cc2)CCCCC1`: 33 to 38 °C. Next, `C=COC(=O)CCCCCCCCCCCCCCCCC`: 36 °C; `O=C(O)c1cccc(-c2cnco2)c1`: 259 to 261 °C.

`CC(C)c1cc(C(C)C)c(S(=O)(=O)N=[N+]=[N-])c(C(C)C)c1` had a melting point of 42 °C. Next, `FC(F)(F)C(F)(F)C(F)(F)C(F)(C(F)(F)F)C(F)(F)F`: -119 °C.

Turning to `On1nnc2ccc(Cl)cc21`, the melting point worked out at 197 °C. As to `O=CCC=O`, the melting point amounted to 72 °C. On to `NC(=S)c1cccc(-n2cccc2)c1`, for which the melting point lay within 110 to 112 °C. Next, `NNc1c(Cl)cc(Cl)cc1C(F)(F)F`: 40 to 43 °C. Next, `CS(=O)(=O)N1CCNCC1`: 99 to 100 °C; `CCCCCCCCc1ccc(NC(=O)c2ccc(OC)cc2)cc1`: 132 °C. The compound `N#Cc1cnc(N2CCCCC2)nc1N` came in with a melting point of 220 to 222 °C. Next, `CON(C)C(=O)C=P(c1ccccc1)(c1ccccc1)c1ccccc1`: 183 °C; `O=[N+]([O-])c1cc(Cl)ccc1F`: 8.3 °C. Next, `NC(=O)OCC(O)c1ccccc1` (configuration not stated): 112 °C; `O=C(C=Cc1ccc(Br)cc1)c1ccc(Cl)cc1`: 167 to 168 °C; `CCCCCCCCNC(=S)NN`: 47 to 49 °C. Consider `CCCC(C)(C)C(=O)Nc1ccc(Cl)cc1`, for which the melting point was found to be 87.5 °C. The compound `CC(C)(C)OC(=O)N1CCC(c2nc(CO)cs2)CC1` registered a melting point of 97 to 101 °C. Next, `CCOC(=O)CCCCCCCC(=O)OCC`: -18.5 °C; `Cc1ccc2cnccc2c1`: 85.5 °C.

The compound `NC(=O)c1cccc(C(N)=O)c1` gave a melting point of 280 °C. In turn, `Cc1cc(Br)cc(C)c1I` gave a melting point of 42 to 44 °C.
